Laboratory results as given in PMC7265341, “Quantifying CDK inhibitor selectivity in live cells” (Nature Communications, 2020).
Where two headings read alike, the source gives them in different places.

Legend:
CDK11B/Cyclin L2 = CDK11B/Cyclin L2 (Homo sapiens, UniProt P21127); assay: NanoBRET live-cell target engagement, CDK11B-NanoLuc/Cyclin L2 in HEK-293; assay type: binding; details: CDK11b/L2; for IC50: read-out: IC50
CDK7 = CDK7 (Homo sapiens, UniProt P50613); assay: NanoBRET live-cell target engagement, NanoLuc-CDK7 in HEK-293; assay type: binding; details: CDK7; for IC50: read-out: IC50
CDK19/Cyclin C = CDK19/Cyclin C (Homo sapiens, UniProt Q9BWU1); assay: NanoBRET live-cell target engagement, NanoLuc-CDK19/Cyclin C in HEK-293; details: CDK19/C
CDK14/Cyclin Y = CDK14/Cyclin Y (Homo sapiens, UniProt O94921); assay: NanoBRET live-cell target engagement, CDK14-NanoLuc/Cyclin Y in HEK-293; assay type: binding; details: CDK14/Y; for IC50: read-out: IC50
CDK15/Cyclin Y = CDK15/Cyclin Y (Homo sapiens, UniProt Q96Q40); assay: NanoBRET live-cell target engagement, NanoLuc-CDK15/Cyclin Y in HEK-293; assay type: binding
CDK8/Cyclin C = CDK8/Cyclin C (Homo sapiens, UniProt P49336); assay: NanoBRET live-cell target engagement, NanoLuc-CDK8/Cyclin C in HEK-293; assay type: binding; details: CDK8/C
Sequence of CDK8/Cyclin C (P49336 whole entry): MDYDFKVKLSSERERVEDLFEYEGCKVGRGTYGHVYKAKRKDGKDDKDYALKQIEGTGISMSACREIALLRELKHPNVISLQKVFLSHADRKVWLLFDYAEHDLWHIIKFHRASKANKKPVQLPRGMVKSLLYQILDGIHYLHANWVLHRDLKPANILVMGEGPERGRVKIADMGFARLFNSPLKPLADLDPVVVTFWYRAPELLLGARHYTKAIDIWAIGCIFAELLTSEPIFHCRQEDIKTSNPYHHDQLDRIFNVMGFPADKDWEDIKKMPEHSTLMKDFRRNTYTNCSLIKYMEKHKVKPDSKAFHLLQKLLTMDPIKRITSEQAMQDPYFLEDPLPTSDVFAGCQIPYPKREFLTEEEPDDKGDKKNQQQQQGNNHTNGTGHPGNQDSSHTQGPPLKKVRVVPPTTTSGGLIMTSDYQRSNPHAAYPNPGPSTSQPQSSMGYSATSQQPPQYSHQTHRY
Sequence of CDK8/Cyclin C (P24863 whole entry partner): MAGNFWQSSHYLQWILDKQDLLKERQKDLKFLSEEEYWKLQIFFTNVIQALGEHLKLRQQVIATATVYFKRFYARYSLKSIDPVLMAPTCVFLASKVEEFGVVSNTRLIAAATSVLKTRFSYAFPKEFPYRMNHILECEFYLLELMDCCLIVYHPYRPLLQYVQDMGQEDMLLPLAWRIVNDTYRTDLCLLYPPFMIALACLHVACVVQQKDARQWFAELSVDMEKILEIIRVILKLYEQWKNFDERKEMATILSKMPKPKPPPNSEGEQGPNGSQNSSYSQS

CDK10/Cyclin L2 = CDK10/Cyclin L2 (Homo sapiens, UniProt Q15131); assay: NanoBRET live-cell target engagement, CDK10-NanoLuc/Cyclin L2 in HEK-293; details: CDK10/L2
Sequence of CDK10/Cyclin L2 (Q15131 whole entry): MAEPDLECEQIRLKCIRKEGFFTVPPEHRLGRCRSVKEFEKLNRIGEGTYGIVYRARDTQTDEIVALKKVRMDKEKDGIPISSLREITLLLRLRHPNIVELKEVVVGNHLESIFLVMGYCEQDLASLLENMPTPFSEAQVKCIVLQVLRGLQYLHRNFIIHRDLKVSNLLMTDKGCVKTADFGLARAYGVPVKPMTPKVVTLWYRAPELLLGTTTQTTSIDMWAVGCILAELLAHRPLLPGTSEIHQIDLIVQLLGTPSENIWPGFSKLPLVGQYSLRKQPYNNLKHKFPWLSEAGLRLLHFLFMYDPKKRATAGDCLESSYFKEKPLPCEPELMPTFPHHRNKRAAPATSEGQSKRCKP

CDK17/Cyclin Y = CDK17/Cyclin Y (Homo sapiens, UniProt Q00537); assay: NanoBRET live-cell target engagement, CDK17-NanoLuc/Cyclin Y in HEK-293; assay type: binding; details: CDK17/Y; for IC50: read-out: IC50
CDK18/Cyclin Y = CDK18/Cyclin Y (Homo sapiens, UniProt Q07002); assay: NanoBRET live-cell target engagement, CDK18-NanoLuc/Cyclin Y in HEK-293; assay type: binding; details: CDK18/Y; for IC50: read-out: IC50
CDK11A/Cyclin L2 = target: T1, CDK11A/Cyclin L2 (Homo sapiens, UniProt Q9UQ88); assay: NanoBRET live-cell target engagement, CDK11A-NanoLuc/Cyclin L2 in HEK-293; assay type: binding; details: CDK11a/L2; for IC50: read-out: IC50
T1 sequence (Q9UQ88 1-783): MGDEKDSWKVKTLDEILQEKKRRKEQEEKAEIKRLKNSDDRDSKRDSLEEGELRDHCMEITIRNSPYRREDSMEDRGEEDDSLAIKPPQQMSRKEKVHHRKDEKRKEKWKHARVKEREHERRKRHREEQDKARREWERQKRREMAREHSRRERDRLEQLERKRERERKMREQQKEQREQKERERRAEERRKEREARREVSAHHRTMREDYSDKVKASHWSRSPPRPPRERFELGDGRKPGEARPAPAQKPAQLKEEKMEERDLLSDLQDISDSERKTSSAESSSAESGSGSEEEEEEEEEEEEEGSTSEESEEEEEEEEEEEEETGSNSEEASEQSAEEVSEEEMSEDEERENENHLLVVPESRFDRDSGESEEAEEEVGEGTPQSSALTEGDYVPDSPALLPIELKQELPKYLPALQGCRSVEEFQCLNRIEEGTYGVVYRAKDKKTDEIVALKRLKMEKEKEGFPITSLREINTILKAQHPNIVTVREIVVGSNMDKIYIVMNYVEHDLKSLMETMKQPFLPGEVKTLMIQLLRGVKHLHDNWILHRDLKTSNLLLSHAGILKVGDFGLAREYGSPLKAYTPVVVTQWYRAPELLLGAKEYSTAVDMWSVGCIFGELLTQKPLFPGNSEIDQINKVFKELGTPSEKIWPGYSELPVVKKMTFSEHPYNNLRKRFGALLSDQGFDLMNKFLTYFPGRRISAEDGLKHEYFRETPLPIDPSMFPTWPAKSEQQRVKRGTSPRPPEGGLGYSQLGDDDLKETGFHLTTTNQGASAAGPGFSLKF

CDK6/Cyclin D1 = CDK6/Cyclin D1 (Homo sapiens, UniProt Q00534); assay: NanoBRET live-cell target engagement, NanoLuc-CDK6/Cyclin D1 in HEK-293; assay type: binding; details: CDK6/D1; for IC50: read-out: IC50
CDK16/Cyclin Y = CDK16/Cyclin Y (Homo sapiens, UniProt Q00536); assay: NanoBRET live-cell target engagement, CDK16-NanoLuc/Cyclin Y in HEK-293; assay type: binding; details: CDK16/Y; for IC50: read-out: IC50
CDK2/Cyclin E1 = CDK2/Cyclin E1 (Homo sapiens, UniProt P24941); assay: NanoBRET live-cell target engagement, CDK2-NanoLuc/Cyclin E1 in HEK-293; assay type: binding; details: CDK2/E1; for IC50: read-out: IC50
CDK9/Cyclin K = CDK9/Cyclin K (Homo sapiens, UniProt P50750); assay: NanoBRET live-cell target engagement, NanoLuc-CDK9/Cyclin K in HEK-293; assay type: binding; details: CDK9/K
Sequence of CDK9/Cyclin K (P50750 whole entry): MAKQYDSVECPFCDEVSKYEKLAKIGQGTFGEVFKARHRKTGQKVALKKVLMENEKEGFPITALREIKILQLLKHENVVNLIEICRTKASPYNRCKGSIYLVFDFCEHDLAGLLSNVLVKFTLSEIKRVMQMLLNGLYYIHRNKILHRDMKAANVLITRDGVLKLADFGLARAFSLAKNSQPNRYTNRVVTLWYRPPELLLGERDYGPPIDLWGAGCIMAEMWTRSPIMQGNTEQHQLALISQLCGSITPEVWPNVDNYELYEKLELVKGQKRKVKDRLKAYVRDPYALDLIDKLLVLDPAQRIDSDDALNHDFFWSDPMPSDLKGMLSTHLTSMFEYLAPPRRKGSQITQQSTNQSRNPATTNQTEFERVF
Sequence of CDK9/Cyclin K (O75909 whole entry partner): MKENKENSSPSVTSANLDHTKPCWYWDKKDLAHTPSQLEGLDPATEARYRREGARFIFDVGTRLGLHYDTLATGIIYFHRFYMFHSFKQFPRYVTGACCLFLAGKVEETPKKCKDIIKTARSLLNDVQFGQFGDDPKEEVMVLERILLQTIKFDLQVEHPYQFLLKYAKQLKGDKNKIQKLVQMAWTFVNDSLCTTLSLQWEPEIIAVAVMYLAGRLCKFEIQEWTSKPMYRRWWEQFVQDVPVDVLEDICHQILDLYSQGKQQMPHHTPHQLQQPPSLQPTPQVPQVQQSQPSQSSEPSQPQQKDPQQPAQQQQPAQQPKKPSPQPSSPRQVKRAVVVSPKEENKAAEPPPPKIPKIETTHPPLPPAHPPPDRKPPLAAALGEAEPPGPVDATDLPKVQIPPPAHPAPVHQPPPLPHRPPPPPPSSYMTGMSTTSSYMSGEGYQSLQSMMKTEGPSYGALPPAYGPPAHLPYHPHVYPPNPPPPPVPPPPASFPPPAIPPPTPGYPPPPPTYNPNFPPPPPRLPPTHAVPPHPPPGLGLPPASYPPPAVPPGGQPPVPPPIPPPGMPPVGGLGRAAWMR

CDK1/Cyclin E1 = CDK1/Cyclin E1 (Homo sapiens, UniProt P06493); assay: NanoBRET live-cell target engagement, CDK1-NanoLuc/Cyclin E1 in HEK-293; assay type: binding; details: CDK1/E1
Sequence of CDK1/Cyclin E1 (P06493 whole entry): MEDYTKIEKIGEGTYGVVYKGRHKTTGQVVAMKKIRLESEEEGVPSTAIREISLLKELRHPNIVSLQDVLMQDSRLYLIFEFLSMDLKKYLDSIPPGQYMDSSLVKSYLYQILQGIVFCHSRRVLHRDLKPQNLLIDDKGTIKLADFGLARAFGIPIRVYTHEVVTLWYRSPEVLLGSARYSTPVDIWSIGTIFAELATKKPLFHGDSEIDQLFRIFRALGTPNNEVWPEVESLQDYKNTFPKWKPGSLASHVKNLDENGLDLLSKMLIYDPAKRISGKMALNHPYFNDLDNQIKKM
Sequence of CDK1/Cyclin E1 (P24864 whole entry partner): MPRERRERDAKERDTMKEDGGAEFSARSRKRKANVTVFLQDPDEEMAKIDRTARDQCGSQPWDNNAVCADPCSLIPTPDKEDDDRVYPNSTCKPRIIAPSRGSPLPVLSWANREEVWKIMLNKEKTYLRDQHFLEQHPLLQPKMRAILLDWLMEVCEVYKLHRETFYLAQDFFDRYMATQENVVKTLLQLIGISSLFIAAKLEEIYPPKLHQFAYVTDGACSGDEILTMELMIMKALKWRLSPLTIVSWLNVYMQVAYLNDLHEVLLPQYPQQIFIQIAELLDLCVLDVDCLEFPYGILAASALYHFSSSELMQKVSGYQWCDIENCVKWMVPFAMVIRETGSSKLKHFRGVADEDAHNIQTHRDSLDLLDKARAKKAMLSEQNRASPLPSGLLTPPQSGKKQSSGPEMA

CDK5/CDK5R1 = CDK5/CDK5R1 (Homo sapiens, UniProt Q00535); assay: NanoBRET live-cell target engagement, CDK5-NanoLuc/CDK5R1 in HEK-293; assay type: binding; details: CDK5/CDK5R1
Sequence of CDK5/CDK5R1 (Q00535 whole entry): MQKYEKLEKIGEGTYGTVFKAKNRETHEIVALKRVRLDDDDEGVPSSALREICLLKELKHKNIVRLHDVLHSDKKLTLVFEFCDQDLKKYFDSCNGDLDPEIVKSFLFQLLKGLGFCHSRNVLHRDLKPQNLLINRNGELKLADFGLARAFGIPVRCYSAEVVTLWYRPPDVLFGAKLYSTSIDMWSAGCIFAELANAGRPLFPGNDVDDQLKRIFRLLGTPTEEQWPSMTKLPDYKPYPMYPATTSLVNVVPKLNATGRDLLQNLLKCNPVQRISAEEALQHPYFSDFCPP
Sequence of CDK5/CDK5R1 (Q15078 whole entry partner): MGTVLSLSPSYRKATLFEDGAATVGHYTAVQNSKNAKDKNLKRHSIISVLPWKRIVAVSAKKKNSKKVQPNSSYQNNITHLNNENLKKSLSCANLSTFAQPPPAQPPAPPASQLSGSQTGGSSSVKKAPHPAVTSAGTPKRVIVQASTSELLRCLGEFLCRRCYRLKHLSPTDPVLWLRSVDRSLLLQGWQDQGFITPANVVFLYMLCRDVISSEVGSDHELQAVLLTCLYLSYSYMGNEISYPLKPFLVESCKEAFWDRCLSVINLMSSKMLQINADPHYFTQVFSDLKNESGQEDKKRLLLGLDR

CDK13/Cyclin K = CDK13/Cyclin K (Homo sapiens, UniProt Q14004); assay: NanoBRET live-cell target engagement, CDK13-NanoLuc/Cyclin K in HEK-293; assay type: binding; details: CDK13/K
Sequence of CDK13/Cyclin K (O75909 whole entry): as the sequence (O75909 whole entry partner) above
Sequence of CDK13/Cyclin K (Q14004 other isoform, or with tags, fused parts or gaps): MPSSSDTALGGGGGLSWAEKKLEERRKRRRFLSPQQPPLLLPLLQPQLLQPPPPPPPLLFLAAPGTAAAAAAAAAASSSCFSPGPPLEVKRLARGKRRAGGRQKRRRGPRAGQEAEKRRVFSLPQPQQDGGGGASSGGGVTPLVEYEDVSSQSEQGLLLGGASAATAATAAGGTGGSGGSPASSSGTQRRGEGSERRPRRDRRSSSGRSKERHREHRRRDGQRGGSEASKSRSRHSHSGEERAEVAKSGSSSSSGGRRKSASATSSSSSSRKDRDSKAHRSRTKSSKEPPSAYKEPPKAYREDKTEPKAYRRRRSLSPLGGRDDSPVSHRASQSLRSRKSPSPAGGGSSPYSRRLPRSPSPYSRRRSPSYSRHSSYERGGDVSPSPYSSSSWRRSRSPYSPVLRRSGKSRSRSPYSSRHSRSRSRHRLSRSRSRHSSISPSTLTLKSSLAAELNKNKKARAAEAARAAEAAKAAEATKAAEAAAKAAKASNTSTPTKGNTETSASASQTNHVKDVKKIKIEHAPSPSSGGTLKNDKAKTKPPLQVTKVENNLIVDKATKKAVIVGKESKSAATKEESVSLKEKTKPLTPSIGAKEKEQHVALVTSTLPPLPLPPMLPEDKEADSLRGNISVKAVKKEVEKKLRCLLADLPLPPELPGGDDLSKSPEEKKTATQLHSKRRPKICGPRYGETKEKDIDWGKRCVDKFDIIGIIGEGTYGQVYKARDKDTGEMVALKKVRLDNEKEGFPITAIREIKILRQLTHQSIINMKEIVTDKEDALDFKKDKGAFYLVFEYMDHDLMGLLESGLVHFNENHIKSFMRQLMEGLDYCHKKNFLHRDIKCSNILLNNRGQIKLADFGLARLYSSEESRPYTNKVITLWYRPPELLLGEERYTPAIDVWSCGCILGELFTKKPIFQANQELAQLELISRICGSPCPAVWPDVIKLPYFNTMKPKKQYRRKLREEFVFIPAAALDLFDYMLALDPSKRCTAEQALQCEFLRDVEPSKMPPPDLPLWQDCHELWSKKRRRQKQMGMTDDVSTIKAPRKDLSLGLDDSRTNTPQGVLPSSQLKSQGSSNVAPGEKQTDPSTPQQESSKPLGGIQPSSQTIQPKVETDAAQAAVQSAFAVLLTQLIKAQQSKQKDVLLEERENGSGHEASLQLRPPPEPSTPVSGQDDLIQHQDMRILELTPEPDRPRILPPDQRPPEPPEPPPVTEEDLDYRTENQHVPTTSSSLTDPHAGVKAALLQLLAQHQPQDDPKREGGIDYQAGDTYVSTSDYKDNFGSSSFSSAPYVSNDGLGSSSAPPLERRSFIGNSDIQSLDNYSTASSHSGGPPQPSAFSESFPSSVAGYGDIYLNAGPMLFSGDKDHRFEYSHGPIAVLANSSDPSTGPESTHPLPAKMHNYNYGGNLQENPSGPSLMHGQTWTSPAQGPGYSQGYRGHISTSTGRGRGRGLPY

CDK20/Cyclin H = CDK20/Cyclin H (Homo sapiens, UniProt Q8IZL9); assay: NanoBRET live-cell target engagement, NanoLuc-CDK20/Cyclin H in HEK-293; assay type: binding; details: CDK20/H
CDK4/Cyclin D1 = CDK4/Cyclin D1 (Homo sapiens, UniProt P11802); assay: NanoBRET live-cell target engagement, NanoLuc-CDK4/Cyclin D1 in HEK-293; assay type: binding; details: CDK4/D1; for IC50: read-out: IC50

CC(C)c1c2cc(-c3ccnc(N[C@H]4CC[C@H](NC5CCOCC5)CC4)n3)ccc2nn1C [LY2857785]
Inhibition at 10µM (%) (CDK11B/Cyclin L2; average): 94.8% | IC50 (CDK11B/Cyclin L2; average (± SEM where n=3)): 24 nM | Inhibition at 10µM (%) (CDK11B/Cyclin L2; experiment 1): 95.7% | IC50 (CDK11B/Cyclin L2; experiment 1): 21 nM | Inhibition at 10µM (%) (CDK11B/Cyclin L2; experiment 2): 93.9% | IC50 (CDK11B/Cyclin L2; experiment 2): 27 nM | Inhibition at 10µM (%) (CDK7; average): 92.6% | IC50 (CDK7; average (± SEM where n=3)): 31 nM | Inhibition at 10µM (%) (CDK7; experiment 1): 91.7% | IC50 (CDK7; experiment 1): 28 nM | Inhibition at 10µM (%) (CDK7; experiment 2): 93.4% | IC50 (CDK7; experiment 2): 34 nM | Inhibition at 10µM (%) (CDK19/Cyclin C; average): 82.9% | Inhibition at 10µM (%) (CDK19/Cyclin C; experiment 1): 90.1% | Inhibition at 10µM (%) (CDK19/Cyclin C; experiment 2): 75.7% | Inhibition at 10µM (%) (CDK14/Cyclin Y; average): 90.6% | IC50 (CDK14/Cyclin Y; average (± SEM where n=3)): 510 nM | Inhibition at 10µM (%) (CDK14/Cyclin Y; experiment 1): 90.3% | IC50 (CDK14/Cyclin Y; experiment 1): 392 nM | Inhibition at 10µM (%) (CDK14/Cyclin Y; experiment 2): 90.9% | IC50 (CDK14/Cyclin Y; experiment 2): 630 nM | Inhibition at 10µM (%) (CDK15/Cyclin Y; CDK15/Y, average): 93.6% | IC50 (CDK15/Cyclin Y; CDK15/Y, average (± SEM where n=3), read-out: IC50): 320 nM | Inhibition at 10µM (%) (CDK15/Cyclin Y; CDK15/Y, experiment 1): 93.4% | IC50 (CDK15/Cyclin Y; CDK15/Y, experiment 1, read-out: IC50): 323 nM | Inhibition at 10µM (%) (CDK15/Cyclin Y; CDK15/Y, experiment 2): 93.9% | IC50 (CDK15/Cyclin Y; CDK15/Y, experiment 2, read-out: IC50): 320 nM | IC50 (CDK15/Cyclin Y; live HEK-293, 2 h, mean ± S.E.M. (n=3) or mean (n=2), read-out: IC50 for CDK/cyclin complexes, CDK15/Y): 320 nM | Inhibition at 10µM (%) (CDK8/Cyclin C; average): 83.7% | Inhibition at 10µM (%) (CDK8/Cyclin C; experiment 1): 88.4% | Inhibition at 10µM (%) (CDK8/Cyclin C; experiment 2): 79.0% | Inhibition at 10µM (%) (CDK10/Cyclin L2; average): 80.7% | IC50 (CDK10/Cyclin L2; average (± SEM where n=3)): 600 nM | IC50 (CDK10/Cyclin L2; experiment 1): 490 nM | Inhibition at 10µM (%) (CDK10/Cyclin L2; experiment 1): 81.9% | IC50 (CDK10/Cyclin L2; experiment 2): 710 nM | Inhibition at 10µM (%) (CDK10/Cyclin L2; experiment 2): 79.4% | Inhibition at 10µM (%) (CDK17/Cyclin Y; average): 90.5% | IC50 (CDK17/Cyclin Y; average (± SEM where n=3)): 41 nM | Inhibition at 10µM (%) (CDK17/Cyclin Y; experiment 1): 89.7% | IC50 (CDK17/Cyclin Y; experiment 1): 15 nM | Inhibition at 10µM (%) (CDK17/Cyclin Y; experiment 2): 91.4% | IC50 (CDK17/Cyclin Y; experiment 2): 67 nM | Inhibition at 10µM (%) (CDK18/Cyclin Y; average): 96.0% | IC50 (CDK18/Cyclin Y; average (± SEM where n=3)): 290 nM | Inhibition at 10µM (%) (CDK18/Cyclin Y; experiment 1): 91.6% | IC50 (CDK18/Cyclin Y; experiment 1): 204 nM | Inhibition at 10µM (%) (CDK18/Cyclin Y; experiment 2): 100.3% | IC50 (CDK18/Cyclin Y; experiment 2): 370 nM | Inhibition at 10µM (%) (CDK11A/Cyclin L2; average): 95.5% | IC50 (CDK11A/Cyclin L2; average (± SEM where n=3)): 17 nM | Inhibition at 10µM (%) (CDK11A/Cyclin L2; experiment 1): 95.3% | IC50 (CDK11A/Cyclin L2; experiment 1): 10 nM | Inhibition at 10µM (%) (CDK11A/Cyclin L2; experiment 2): 95.7% | IC50 (CDK11A/Cyclin L2; experiment 2): 23 nM | Inhibition at 10µM (%) (CDK6/Cyclin D1; average): 96.5% | IC50 (CDK6/Cyclin D1; average (± SEM where n=3)): 110 nM | Inhibition at 10µM (%) (CDK6/Cyclin D1; experiment 1): 96.6% | IC50 (CDK6/Cyclin D1; experiment 1): 124 nM | Inhibition at 10µM (%) (CDK6/Cyclin D1; experiment 2): 96.3% | IC50 (CDK6/Cyclin D1; experiment 2): 98 nM | IC50 (CDK16/Cyclin Y; average (± SEM where n=3)): 160 nM | Inhibition at 10µM (%) (CDK16/Cyclin Y; experiment 1): 82.9% | IC50 (CDK16/Cyclin Y; experiment 1): 220 nM | Inhibition at 10µM (%) (CDK16/Cyclin Y; experiment 2): 91.1% | IC50 (CDK16/Cyclin Y; experiment 2): 91 nM | Inhibition at 10µM (%) (CDK2/Cyclin E1; average): 85.9% | IC50 (CDK2/Cyclin E1; average (± SEM where n=3)): 660 nM | Inhibition at 10µM (%) (CDK2/Cyclin E1; experiment 1): 85.1% | IC50 (CDK2/Cyclin E1; experiment 1): 730 nM | Inhibition at 10µM (%) (CDK2/Cyclin E1; experiment 2): 86.7% | IC50 (CDK2/Cyclin E1; experiment 2): 590 nM | Inhibition at 10µM (%) (CDK9/Cyclin K; average): 97.9% | Inhibition at 10µM (%) (CDK9/Cyclin K; experiment 1): 98.0% | Inhibition at 10µM (%) (CDK9/Cyclin K; experiment 2): 97.9% | Inhibition at 10µM (%) (CDK1/Cyclin E1; average): 76.5% | Inhibition at 10µM (%) (CDK1/Cyclin E1; experiment 1): 76.1% | Inhibition at 10µM (%) (CDK1/Cyclin E1; experiment 2): 76.9% | Inhibition at 10µM (%) (CDK5/CDK5R1; average): 68.7% | Inhibition at 10µM (%) (CDK5/CDK5R1; experiment 1): 68.7% | Inhibition at 10µM (%) (CDK5/CDK5R1; experiment 2): 68.7% | Inhibition at 10µM (%) (CDK13/Cyclin K; average): 26.3% | Inhibition at 10µM (%) (CDK13/Cyclin K; experiment 1): 28.2% | Inhibition at 10µM (%) (CDK13/Cyclin K; experiment 2): 24.3% | Inhibition at 10µM (%) (CDK20/Cyclin H; experiment 1): 39.4% | Inhibition at 10µM (%) (CDK20/Cyclin H; experiment 2): 39.8% | Inhibition at 10µM (%) (CDK4/Cyclin D1; average): 97.1% | IC50 (CDK4/Cyclin D1; average (± SEM where n=3)): 40 nM | Inhibition at 10µM (%) (CDK4/Cyclin D1; experiment 1): 97.8% | IC50 (CDK4/Cyclin D1; experiment 1): 44 nM | Inhibition at 10µM (%) (CDK4/Cyclin D1; experiment 2): 96.5% | IC50 (CDK4/Cyclin D1; experiment 2): 36 nM
